Results reported in ChEMBL document CHEMBL1145488, “Transient loss of high-level mupirocin resistance in Staphylococcus aureus due to MupA polymorphism” (2007).
≈ marks a conversion by molar mass, not a printed value.

How the values were obtained:
Format in all cases: functional
[1] = test system: Staphylococcus aureus; test: Antibacterial activity against Staphylococcus aureus with ileS gene mutation
[2] = test system: Staphylococcus aureus; test: Antibacterial activity against Staphylococcus aureus MB1348 with mupA gene mutation by Etest
[3] = test system: Staphylococcus aureus; test: Antibacterial activity against Staphylococcus aureus MB1348 with mupA gene mutation by broth microdilution
[4] = test system: Staphylococcus aureus; test: Antibacterial activity against Staphylococcus aureus J2870 with mupA gene mutation

C/C(=C\C(=O)OCCCCCCCCC(=O)O)C[C@@H]1OC[C@H](C[C@@H]2O[C@H]2[C@@H](C)[C@H](C)O)[C@@H](O)[C@H]1O [MUPIROCIN]
MIC [1]: 8 µg/mL (≈ 16 µM)
MIC [2]: > 256 µg/mL
MIC [3]: 0.25 µg/mL (≈ 0.499 µM)
MIC [4]: ≥ 512 µg/mL
